Reference: the NIST ThermoML archive (doi:10.1016/j.fluid.2015.03.033)
Where “and” joins values, the source holds several entries; their conditions need not be identical. Equal entries are not always repeated.

How the values were obtained:
[1] = Liquid, Closed cell (Static) method
[2] = excess molar enthalpy (molar enthalpy of mixing); xn = mol fraction of the nth substance listed; conditions: 303.15 K, 100 kPa, Liquid, Calvet calorimetry

Cc1ccccc1 [toluene]
[1]
Conditions	vapor or sublimation pressure
263.64 K	0.484 kPa
273.47 K	0.925 kPa
283.32 K	1.68 kPa
293.24 K	2.926 kPa
298.25 K	3.803 kPa
303.21 K	4.896 kPa
303.23 K	4.896 kPa and 4.894 kPa
313.19 K	7.872 kPa
313.22 K	7.872 kPa
323.22 K	12.25 kPa
333.2 K	18.57 kPa
343.16 K	27.2 kPa

CCCCCCC [heptane]
[1]
Conditions	vapor or sublimation pressure [kPa]
263.45 K	0.817
273.27 K	1.548
283.21 K	2.77
293.25 K	4.772
303.15 K	7.807
313.12 K	12.41
323.1 K	18.98
333.07 K	28.13
343.04 K	40.62
353.01 K	57.56

Cc1cnccn1 [2-methylpyrazine] + C1CCCCC1
[2]
Conditions	excess molar enthalpy [kcal/mol]
x1 = 0.094	0.163
x1 = 0.153	0.234
x1 = 0.251	0.308
x1 = 0.381	0.356
x1 = 0.474	0.364
x1 = 0.566	0.36
x1 = 0.639	0.331
x1 = 0.766	0.242
x1 = 0.845	0.175

Cc1cnccn1 [2-methylpyrazine]
[1]
Conditions	vapor or sublimation pressure [kPa]
263.72 K	0.109
273.47 K	0.23
283.27 K	0.457
293.24 K	0.866
303.18 K	1.563
313.12 K	2.697
323.13 K	4.476
333.11 K	7.151
343.05 K	11.03
353.03 K	16.61
362.95 K	24.08

Cc1cnccn1 [2-methylpyrazine] + Cc1ccccc1
[2]
Conditions	excess molar enthalpy [kcal/mol]
x1 = 0.156	0.00669
x1 = 0.256	0.0115
x1 = 0.421	0.0174
x1 = 0.465	0.0179
x1 = 0.475	0.0179
x1 = 0.561	0.0165
x1 = 0.698	0.00932
x1 = 0.76	0.00693

C1CCCCC1 [cyclohexane]
[1]
Conditions	vapor or sublimation pressure [kPa]
283.32 K	6.389
288.28 K	8.195
293.27 K	10.42
298.25 K	13.17
303.27 K	16.45
313.24 K	24.97
323.21 K	36.72
333.21 K	52.48
343.18 K	72.98
353.14 K	99.11

Cc1cnccn1 [2-methylpyrazine] + CCCCCCC
[2]
Conditions	excess molar enthalpy [kcal/mol]
x1 = 0.082	0.135
x1 = 0.175	0.257
x1 = 0.335	0.353
x1 = 0.411	0.369
x1 = 0.481	0.37
x1 = 0.523	0.369
x1 = 0.622	0.344
x1 = 0.704	0.298
x1 = 0.809	0.231
x1 = 0.877	0.167
